In patent US6063782A, “Pyrrolopyridazine derivatives” (Sankyo Company, Limited, priority 1994, dated 2000):
Structures can show the parent of a compound that is named as a salt.

Tests used:
[1] = test system: Helicobacter pylori strains 9470, 9472 and 9474; test: Antibacterial activity against Helicobacter pylori; format: cell-based; conditions: strains 9470, 9472 and 9474, 37° C., 3 days, slightly aerobic; result given in words only
Method: Antibacterial activity against Helicobacter pylori The antibacterial activity of the compounds of the present invention were evaluated by measuring the minimum inhibitory concentration values (MIC) of the present compounds against Helicobacter pylori strains 9470, 9472 and 9474. These strains of Helicobacter pylori were incubated for 4 days on a plate medium. The medium was prepared by dissolving brain heart infusion agar (Product of DIFCO) in a defined amount of distilled water, by sterilization in an autoclave, injecting horse blood (Product of Nihon Seibutsu Zairyo Co.) into each plate for the medium to contain 7% of the blood and by solidifying. Under slightly aerobic conditions, Helicobacter pylori cultivated at 37° C. for 4 days was suspended in a physiological saline solution for its inocular size to be about 10^8 CFU/ml. The suspension was diluted 100 times, and about 10 μl of the diluted suspension was inoculated on a medium for MIC determination. The medium for MIC determination used had the same compounds as those for preculture. […] In a similar way to the preculture, Helicobacter pylori was cultivated at 37° C. for 3 days under slightly aerobic conditions. […] The minimum concentration which gave no bacterial growth was regarded as MIC of the compound of the present invention.

[2] = biological target: proton.potassium-adenosine triphosphatase (H+.K+-ATPase) (Sus scrofa, UniProt P19156); test: Proton.potassium-adenosine triphosphatase (H+.K+-ATPase) inhibition test; format: biochemical; conditions: microsomal fraction of porcine gastric mucosa, pH=6.85, 37° C.; result given in words only
Sequence of proton.potassium-adenosine triphosphatase (H+.K+-ATPase) (P19156 whole entry): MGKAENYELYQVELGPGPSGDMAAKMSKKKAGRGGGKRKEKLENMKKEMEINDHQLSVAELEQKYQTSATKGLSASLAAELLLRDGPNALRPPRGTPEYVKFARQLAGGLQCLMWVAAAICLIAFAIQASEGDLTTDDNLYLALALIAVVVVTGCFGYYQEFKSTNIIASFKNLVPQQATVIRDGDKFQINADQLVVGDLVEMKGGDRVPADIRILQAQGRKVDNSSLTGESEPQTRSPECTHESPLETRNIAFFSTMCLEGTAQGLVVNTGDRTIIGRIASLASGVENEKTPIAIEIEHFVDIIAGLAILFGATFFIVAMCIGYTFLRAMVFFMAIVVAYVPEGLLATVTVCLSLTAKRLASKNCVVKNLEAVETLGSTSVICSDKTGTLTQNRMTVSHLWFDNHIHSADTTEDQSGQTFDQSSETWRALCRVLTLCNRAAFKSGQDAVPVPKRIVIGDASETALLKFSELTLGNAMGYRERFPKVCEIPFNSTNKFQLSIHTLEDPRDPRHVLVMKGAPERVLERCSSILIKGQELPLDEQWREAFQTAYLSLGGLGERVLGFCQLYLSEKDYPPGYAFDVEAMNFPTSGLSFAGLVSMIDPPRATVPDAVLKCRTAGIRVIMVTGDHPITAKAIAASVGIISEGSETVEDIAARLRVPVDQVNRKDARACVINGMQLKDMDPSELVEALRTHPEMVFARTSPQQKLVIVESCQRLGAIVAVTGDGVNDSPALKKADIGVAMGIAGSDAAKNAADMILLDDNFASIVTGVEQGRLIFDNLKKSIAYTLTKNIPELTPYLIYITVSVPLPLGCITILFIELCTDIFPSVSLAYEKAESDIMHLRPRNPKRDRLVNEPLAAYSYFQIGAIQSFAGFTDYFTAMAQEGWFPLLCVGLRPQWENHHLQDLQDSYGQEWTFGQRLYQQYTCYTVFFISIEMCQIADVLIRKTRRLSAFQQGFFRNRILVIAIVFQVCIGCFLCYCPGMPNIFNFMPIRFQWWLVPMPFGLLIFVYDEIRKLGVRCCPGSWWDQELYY
Sequence of proton.potassium-adenosine triphosphatase (H+.K+-ATPase) (P18434 whole entry partner): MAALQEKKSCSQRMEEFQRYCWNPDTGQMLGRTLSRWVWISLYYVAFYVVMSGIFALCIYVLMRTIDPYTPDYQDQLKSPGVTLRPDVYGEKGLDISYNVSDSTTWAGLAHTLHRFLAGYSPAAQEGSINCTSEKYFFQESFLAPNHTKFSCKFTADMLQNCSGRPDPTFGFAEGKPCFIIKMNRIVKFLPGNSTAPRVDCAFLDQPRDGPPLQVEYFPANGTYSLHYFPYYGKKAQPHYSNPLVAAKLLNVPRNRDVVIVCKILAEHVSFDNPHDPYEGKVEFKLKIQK
Method: Proton.potassium-adenosine triphosphatase (H^+.K^+ -ATPase) activation test
According to the method reported by Sachs et al. [J. Biol. Chem., 251, 7690 (1976)], a microsomal fraction obtained from homogenized fresh porcine gastric mucosa by density gradient ultracentrifugation was used as the proton.potassium-adenosine triphosphatase preparation, 10 μl of a solution of a test compound in dimethylsulfoxide were added to 0.75 ml of 70 mM tris-HCl buffer solution (magnesium chloride 5 mM, potassium chloride 20 mM and pH=6.85) containing from 30 to 80 μg/ml (in terms of protein concentration) of the enzyme preparation and the mixture was incubated for 45 minutes at 37° C. with shaking at 200 times per minute. The enzyme reaction was initiated by adding 0.25 ml of 8 mM disodium adenosine triphosphate solution. After 20 minutes of the reaction time, the reaction was stopped by adding 1 ml of a 10k trichloroacetic acid-active carbon (100 mg) solution. The reaction solution was centrifuged (4° C., 3000 rpm, 15 minutes) and the inorganic phosphate in the supernatant prepared from adenosine triphosphate by hydrolysis was measured by colorimetry, according to the method of Yoda and Hokin [Biochem. Biophys. Res. Commun., 40, 880 (1970)]. In a similar manner, the amount of inorganic phosphate was measured in a reaction solution in the absence of potassium chloride. From the difference between the phosphate amounts in the presence and absence of potassium chloride, the proton-potassium-adenosine triphosphatase activity was calculated. Based on the activity value in the control and the values in the test compound at the various concentrations tested, the inhibiting rates (%) and then the 50? inhibiting concentrations (IC50) to proton.potassium-adenosine triphosphatase activity were obtained.

gastric acid secretion = test: Gastric acid secretion activity test using pyloric ligation in rats (Shay rat method); format: in vivo; conditions: male SD rats, 20 mg/kg injected into the duodenal region, 4 hours, result given in words only
Method: Gastric acid secretion activity test using pyloric ligation in rats (Shay rat method)
Pyloric ligation was conducted based on the method of Shay et al. [Gastroenterology, 5, 43 (1945)]. Male rats of SD strain were fasted for 24 hours; their abdomens were sectioned during anesthesia under ether. The duodenal and pyloric regions were exposed and the latter was ligated. A solution of a test compound (10 mg/ml) prepared by use of 1.5w parts of dimethylacetamide, 68.5% parts of polyethyleneglycol (PEG-400) and 30% parts of physiological saline solution, was injected into the duodenal region for the dose to be 20 mg/kg by use of a 1-ml syringe and an injection needle (26G). After injection of the test compound, the abdominal region was sutured. The animals were allowed to a stand for 4 hours without feeding food and water and then sacrified with carbon dioxide gas. The stomach was excised and gastric juice was gathered. The gastric juice sample was centrifuged (4° C., 2500 rpm, 15 minutes). The amount of the supernatant was measured to be as the gastric secretion. The acidity of the gastric juice was determined by the amount (ml) of 0.01 N sodium hydroxide solution required for titration of 0.1 ml of the supernatant to pH 7.0 by use of-an auto-titrating apparatus. The value of gastric acid secretion was calculated from the value of gastric secretion and the acidity of gastric juice. The inhibiting rate was obtained from the values of gastric acid secretion of the control group and of the administered group.

minimum inhibitory concentration (MIC) against Helicobacter pylori [1] | inhibiting concentrations (IC50) to proton.potassium-adenosine triphosphatase activity [2] | SMILES | inhibiting rate of gastric acid secretion (gastric acid secretion)
excellent antibacterial activity | excellent activity | CC=CCn1c(C)c(C)c2cnnc(OCc3ccc(F)cc3)c21 [Example 1, 1-(2-Butenyl)-7-(4-fluorobenzyloxy)-2,3-dimethylpyrrolo[2,3-d]pyridazine] | excellent activity
excellent antibacterial activity |  | Cc1c(C)n(C2CC2)c2c(OCc3ccccc3)nncc12 [Example 16, 7-Benzyloxy-1-cyclopropyl-2,3-dimethylpyrrolo[2,3-d]pyridazine] | excellent activity
excellent antibacterial activity | excellent activity | C=CCn1c(C)c(C)c2cnnc(OCc3ccc(Cl)cc3Cl)c21 [Example 17, 7-(2,4-Dichlorobenzyloxy)-2,3-dimethyl-1-(2-propenyl)pyrrolo[2,3-d]pyridazine] | excellent activity
 | excellent activity | Cc1c(C)n(CC2CC2)c2c(OCc3ccc(F)cc3)nncc12 [Example 35, 1-Cyclopropylmethyl-7-(4-fluorobenzyloxy)-2,3-dimethylpyrrolo[2,3-d]pyridazine] | excellent activity
excellent antibacterial activity | excellent activity | C/C=C/n1c(C)c(C)c2cnnc(OCc3ccc(F)cc3)c21 [Example 44, 7-(4-Fluorobenzyloxy)-2,3-dimethyl-1-(1-propenyl)-pyrrolo[2,3-d]pyridazine] | excellent activity
excellent antibacterial activity | excellent activity | CC=CCn1c(C)c(C)c2cnnc(OCc3c(Cl)cccc3Cl)c21 [Example 49, 1-(2-Butenyl)-7-(2,6-dichlorobenzyloxy)-2,3-dimethylpyrrolo[2,3-d]pyridazine] | 

Continued, compound first:

SMILES | minimum inhibitory concentration (MIC) against Helicobacter pylori [1] | inhibiting concentrations (IC50) to proton.potassium-adenosine triphosphatase activity [2] | inhibiting rate of gastric acid secretion (gastric acid secretion)
Cc1c(C)n(C[C@@H]2C[C@H]2C)c2c(OCc3ccc(F)cc3)nncc12 (relative stereo) [Example 57, 7-(4-Fluorobenzyloxy)-2,3-dimethyl-1-(2-methylcyclopropylmethyl)pyrrolo[2,3-d]pyridazine] | excellent antibacterial activity | excellent activity | excellent activity
Cc1c(C)n(C[C@@H]2C[C@H]2C)c2c(OCc3ccc(F)cc3F)nncc12 (relative stereo) [Example 58, 7-(2,4-Difluorobenzyloxy)-2,3-dimethyl-1-(2-methylcyclopropylmethyl)pyrrolo[2,3-d]pyridazine] | excellent antibacterial activity | excellent activity | excellent activity
Cc1c(C)n(CC2CC2)c2c(OCc3ccccc3)nncc12 [Example 4, 7-Benzyloxy-1-cyclopropylmethyl-2,3-dimethylpyrrolo[2,3-d]pyridazine] | excellent antibacterial activity | excellent activity | 
C=CCn1c(C)c(C)c2cnnc(OCc3ccc(F)cc3)c21 [Example 7, 7-(4-Fluorobenzyloxy)-2,3-dimethyl-1-(2-propenyl)pyrrolo[2,3-d]pyridazine] | excellent antibacterial activity | excellent activity | excellent activity
C=CCn1c(C)c(C)c2cnnc(OCc3ccc(F)cc3F)c21 [Example 9, 7-(2,4-Difluorobenzyloxy)-2,3-dimethyl-1-(2-propenyl)pyrrolo[2,3-d]pyridazine] | excellent antibacterial activity | excellent activity | excellent activity
CC/C=C/Cn1c(C)c(C)c2cnnc(OCc3ccccc3)c21 [Example 11, 7-Benzyloxy-2,3-dimethyl-1-(2-pentenyl)pyrrolo[2,3-d]pyridazine] | excellent antibacterial activity |  | excellent activity
C=CCn1c(C)c(C)c2cnnc(OCc3ccc(Cl)cc3)c21 [Example 12, 7-(4-Chlorobenzyloxy)-2,3-dimethyl-1-(2-propenyl)povrrolo[2,3-d]pyridazine] | excellent antibacterial activity |  | excellent activity
C=C(C)Cn1c(C)c(C)c2cnnc(OCc3ccccc3)c21 [Example 14, 7-Benzyloxy-2,3-dimethyl-1-(2-methyl-2-propenyl)-ovrrolo[2,3-d]pyridazine] | excellent antibacterial activity |  | excellent activity
CC=CCn1c(C)c(C)c2cnnc(OCc3ccc(Cl)cc3Cl)c21 [Example 21, 1-(2-Butenyl)-7-(2,4-dichlorobenzyloxy)-2,3-dimethylpyrrolo[2,3-d]pyridazine] | excellent antibacterial activity | excellent activity | 
CC=CCn1c(C)c(C)c2cnnc(OCc3ccc(F)cc3F)c21 [Example 22, 1-(2-Butenyl)-7-(2,4-difluorobenzyloxy)-2,3-dimethylpyrrolo[2,3-d]pyridazine] | excellent antibacterial activity | excellent activity | excellent activity
C/C=C/Cn1c(C)c(C)c2cnnc(OCc3ccc(F)cc3)c21 [Example 74, 1-(2-Butenyl)-7-(4-fluorobenzyloxy)-2,3-dimethylpyrrolo[2,3-d]pyridazine hydrochloride] |  | excellent activity | 
CC=CCn1c(C)c(C)c2c[n+]([O-])nc(OCc3ccc(F)cc3)c21 [Example 75, 1-(2-Butenyl)-7-(4-fluorobenzyloxy)-2,3-dimethylpyrrolo[2,3-d]pyridazine-5-oxide] | excellent antibacterial activity | excellent activity | 
CC=CCn1c(C)c(C)c2c[n+]([O-])nc(OCc3ccc(F)cc3F)c21 [Example 76, 1-(2-Butenyl)--7-(2,4-difluorobenzyloxy)-2,3-dimethylpyrrolo[2,3-d]pyridazine-5-oxide] | excellent antibacterial activity | excellent activity | 
